Counter-ions that a name gives are not always drawn. ± gives the standard error.
test system: 621-102 (TSC2-deficient); test: relative viability vs DMSO; higher = less cytotoxic; details: 0.001 µM; serum: 10% FBS; 72 h
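Note: immortalized renal angiomyolipoma cells stably carrying empty vector or TSC2, dosed in 384-well plates in DMEM, viability normalized to vehicle-treated wells within each plate.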

| SMILES | relative viability |
| --- | --- |
| NC1(c2ccc(-c3nc4ccn5c(=O)[nH]nc5c4cc3-c3ccccc3)cc2)CCC1 [MK-2206] | 102 ± 4.5% |
| S=C(NCc1ccc2c(c1)OCO2)N1CCN(c2ncnc3c2oc2ccccc23)CC1 [MP-470] | 116 ± 4.3% |
| Nc1ccccc1NC(=O)c1ccc(CNC(=O)OCc2cccnc2)cc1 [MS-275] | 109.1 ± 0.37% |
| COC(=O)C1=C(C)NC(C)=C(C(=O)OCCN2CCN(C(c3ccccc3)c3ccccc3)CC2)C1c1cccc([N+](=O)[O-])c1 (configuration not stated) [Manidipine HCl (CV-4093)] | 110.4 ± 0.56% |
| COC(=O)C1=C(C)NC(C)=C(C(=O)OCCN2CCN(C(c3ccccc3)c3ccccc3)CC2)C1c1cccc([N+](=O)[O-])c1 (configuration not stated) [Manidipine] | 102 ± 1.7% |
| CNCCCC12CCC(c3ccccc31)c1ccccc12 [Maprotiline HCl] | 114 ± 4.2% |
| Cc1nnc(C(C)C)n1[C@H]1C[C@H]2CC[C@@H](C1)N2CC[C@H](NC(=O)C1CCC(F)(F)CC1)c1ccccc1 [Maraviroc (Selzentry)] | 106 ± 1.5% |
| Cc1ccc(NC(=O)c2ccc(CN3CCN(C)CC3)cc2)cc1Nc1nc(-c2cccnc2)cs1 [Masitinib (AB1010)] | 103 ± 4.6% |
| Cc1[nH]c(=O)c(C#N)cc1-c1ccncc1 [Milrinone (Primacor)] | 114 ± 2.9% |
| O=C1c2c(O)ccc(O)c2C(=O)c2c(NCCNCCO)ccc(NCCNCCO)c21 [Mitoxantrone] | 70.5 ± 3.2% |
| NC(=O)c1ncn([C@@H]2O[C@H](CO)[C@@H](O)[C@H]2O)c1O [Mizoribine] | 98.3 ± 1.2% |
| N=C(N)NC(=N)N1CCOCC1 [Moroxydine] | 111 ± 1.4% |
| CC1(C)CNc2cc(NC(=O)c3cccnc3NCc3ccncc3)ccc21 [Motesanib DiPhosphate] | 119 ± 1.9% |
| FC(F)(F)c1ccc(/C=C/c2nc(COc3ccc(CCCCn4ccnn4)cc3)co2)cc1 [Mubritinib (TAK 165)] | 105.09 ± 0.037% |
| CC(C)(C)c1[nH]cnc1/C=c1\[nH]c(=O)/c(=C/c2ccccc2)[nH]c1=O [NPI-2358] | 50.4 ± 2% |
| CC(C)(Cc1ccc2ccccc2c1)NC[C@@H](O)COc1cccc(Cl)c1C#N [NPS-2143] | 93.6 ± 6.1% |
| CCNC(=O)c1noc(-c2cc(C(C)C)c(O)cc2O)c1-c1ccc(CN2CCOCC2)cc1 [NVP-AUY922] | 33 ± 1.4% |
| CCNC(=O)c1cc2c(-c3cc(OCCN4CCCC4)c(Cl)cc3Cl)nc(N)nc2s1 [NVP-BEP800] | 102 ± 6.3% |
| Fc1cc(-c2cccc3ncc(-c4cnn(C5CCNCC5)c4)nc23)cc(F)c1CN1CCOCC1 [NVP-BSK805 dihydrochloride] | 99.9 ± 4% |

same assay, conditions: 0.01 µM; serum: 10% FBS; 72 h

| SMILES | relative viability |
| --- | --- |
| CCC(C)n1ncn(-c2ccc(N3CCN(c4ccc(OCC5COC(Cn6cncn6)(c6ccc(Cl)cc6Cl)O5)cc4)CC3)cc2)c1=O (configuration not stated) [Itraconazole (Sporanox)] | 102 ± 1.8% |
| CCCNC(=O)Nc1ccc(Oc2ncnc3cc(OC)c(OC)cc23)cc1Cl [KRN 633] | 104 ± 12% |
| O=C(c1ccc(/C=C/c2n[nH]c3ccccc23)cc1)N1CCNCC1 [KW 2449] | 93.7 ± 0.96% |
| O=C(c1ccc(F)cc1)C1CCN(CCn2c(=O)[nH]c3ccccc3c2=O)CC1 [Ketanserin (Vulketan Gel)] | 98.4 ± 2% |
| O=C(c1ccccc1)c1ccc2n1CCC2C(=O)O (configuration not stated) [Ketorolac] | 106 ± 2.7% |
| CCCCCCCCCCCCCCCC(=O)OC[C@H](O)[C@H]1OC(=O)C(O)=C1O [L-Ascorbyl 6-palmitate] | 107 ± 3.4% |
| Cc1[nH]c2ccccc2c1CCNCc1ccc(/C=C/C(=O)NO)cc1 [LBH-589 (Panobinostat)] | 69.1 ± 3.1% |
| Cc1c(C(=O)Nc2ccc(N3C[C@@H](C)O[C@@H](C)C3)nc2)cccc1-c1ccc(OC(F)(F)F)cc1 [LDE225] | 116 ± 3.8% |
| CS(=O)(=O)CCNCc1ccc(-c2ccc3ncnc(Nc4ccc(OCc5cccc(F)c5)c(Cl)c4)c3c2)o1 [Lapatinib Ditosylate] | 110 ± 2.3% |
| Nc1cccc2c1CN(C1CCC(=O)NC1=O)C2=O (configuration not stated) [Lenalidomide] | 113 ± 3% |
| N#Cc1ccc(C(c2ccc(C#N)cc2)n2cncn2)cc1 [Letrozole] | 114 ± 0.22% |
| CC(=O)NC[C@H]1CN(c2ccc(N3CCOCC3)c(F)c2)C(=O)O1 [Linezolid] | 102.8 ± 0.25% |
| CN(C)C(=O)C(CCN1CCC(O)(c2ccc(Cl)cc2)CC1)(c1ccccc1)c1ccccc1 [Loperamide HCl] | 99.2 ± 2.1% |
| O=c1cc(-c2ccc(O)c(O)c2)oc2cc(O)cc(O)c12 [Luteolin (Luteolol)] | 104.7 ± 0.25% |
| Cn1cc(/C=C/C(=O)c2cccc(F)c2)cc1/C=C/C(=O)NO [MC1568] | 103 ± 7.3% |
| CC(C)C[C@@H](C=O)NC(=O)[C@H](CC(C)C)NC(=O)[C@H](CC(C)C)NC(=O)OCc1ccccc1 [MG-132] | 99.9 ± 1.6% |
| Nc1ccccc1NC(=O)c1ccc(CNc2nccc(-c3cccnc3)n2)cc1 [MGCD0103 (Mocetinostat)] | 93.91 ± 0.76% |
| O=C(CN1C(=O)C2(CCCC2)NC[C@H]1c1cc(F)cc(F)c1)Nc1ccc2c(c1)C[C@@]1(C2)C(=O)Nc2ncccc21 [MK 3207 hydrochloride] | 114.8 ± 0.14% |
| O=C(O)CC[C@H]1CC[C@@](c2cc(F)ccc2F)(S(=O)(=O)c2ccc(Cl)cc2)CC1 [MK-0752] | 102 ± 3.8% |

| SMILES | relative viability |
| --- | --- |
| NC1(c2ccc(-c3nc4ccn5c(=O)[nH]nc5c4cc3-c3ccccc3)cc2)CCC1 [MK-2206] | 101 ± 2.4% |
| S=C(NCc1ccc2c(c1)OCO2)N1CCN(c2ncnc3c2oc2ccccc23)CC1 [MP-470] | 112 ± 2.3% |
| Nc1ccccc1NC(=O)c1ccc(CNC(=O)OCc2cccnc2)cc1 [MS-275] | 96.5 ± 1% |
| COC(=O)C1=C(C)NC(C)=C(C(=O)OCCN2CCN(C(c3ccccc3)c3ccccc3)CC2)C1c1cccc([N+](=O)[O-])c1 (configuration not stated) [Manidipine HCl (CV-4093)] | 104.3 ± 0.49% |
| COC(=O)C1=C(C)NC(C)=C(C(=O)OCCN2CCN(C(c3ccccc3)c3ccccc3)CC2)C1c1cccc([N+](=O)[O-])c1 (configuration not stated) [Manidipine] | 99.9 ± 1.5% |
| CNCCCC12CCC(c3ccccc31)c1ccccc12 [Maprotiline HCl] | 109 ± 5.4% |
| Cc1nnc(C(C)C)n1[C@H]1C[C@H]2CC[C@@H](C1)N2CC[C@H](NC(=O)C1CCC(F)(F)CC1)c1ccccc1 [Maraviroc (Selzentry)] | 107 ± 2.3% |
| Cc1ccc(NC(=O)c2ccc(CN3CCN(C)CC3)cc2)cc1Nc1nc(-c2cccnc2)cs1 [Masitinib (AB1010)] | 103 ± 6.5% |
| Cc1[nH]c(=O)c(C#N)cc1-c1ccncc1 [Milrinone (Primacor)] | 110 ± 2% |
| O=C1c2c(O)ccc(O)c2C(=O)c2c(NCCNCCO)ccc(NCCNCCO)c21 [Mitoxantrone] | 65.8 ± 4.4% |
| NC(=O)c1ncn([C@@H]2O[C@H](CO)[C@@H](O)[C@H]2O)c1O [Mizoribine] | 102 ± 1.2% |
| N=C(N)NC(=N)N1CCOCC1 [Moroxydine] | 111 ± 4.4% |
| CC1(C)CNc2cc(NC(=O)c3cccnc3NCc3ccncc3)ccc21 [Motesanib DiPhosphate] | 115.2 ± 1.1% |
| FC(F)(F)c1ccc(/C=C/c2nc(COc3ccc(CCCCn4ccnn4)cc3)co2)cc1 [Mubritinib (TAK 165)] | 97.5 ± 1.1% |
| CC(C)(C)c1[nH]cnc1/C=c1\[nH]c(=O)/c(=C/c2ccccc2)[nH]c1=O [NPI-2358] | 55.9 ± 1.8% |
| CC(C)(Cc1ccc2ccccc2c1)NC[C@@H](O)COc1cccc(Cl)c1C#N [NPS-2143] | 100 ± 2.8% |
| CCNC(=O)c1noc(-c2cc(C(C)C)c(O)cc2O)c1-c1ccc(CN2CCOCC2)cc1 [NVP-AUY922] | 22.2 ± 0.39% |
| CCNC(=O)c1cc2c(-c3cc(OCCN4CCCC4)c(Cl)cc3Cl)nc(N)nc2s1 [NVP-BEP800] | 107 ± 5.5% |
| Fc1cc(-c2cccc3ncc(-c4cnn(C5CCNCC5)c4)nc23)cc(F)c1CN1CCOCC1 [NVP-BSK805 dihydrochloride] | 101 ± 2.5% |

Source: the supplement of paper PMC8960247
